Data as given in patent US9375456B2, “Antiviral composition containing an Aleurites fordii or Daphne kiusiana extract or a fraction thereof as an active ingredient” (priority 2009, dated 2016).

System: NK92 cells
Assay: Dependence of Aleurites fordii extract-induced IFN-γ production on NF-κB/PKC signaling
Assay type: cell-based, human
Details: NK92 cells treated with inhibitor along with Aleurites fordii extract, FIG. 9

CC(=O)c1c(O)c(C)c(O)c(Cc2c(O)c3c(c(C(=O)/C=C/c4ccccc4)c2O)OC(C)(C)C=C3)c1O [rotterin]
induction of IFN-γ production by the Aleurites fordii extract: reduced
